Experimental data taken from US6806283B2, “Selective serotonin receptor antagonists and therapeutic applications thereof” (Virginia Commonwealth University, priority 2002, dated 2004).
Where two headings read alike, the source gives them in different places.

Assays:
H1 histamine receptor = H1 histamine receptor (Homo sapiens, UniProt P35367); experiment: H1 histamine receptor radioligand binding assay (3H-pyrilamine)
Method: Binding assays were also conducted in which the affinity of selected compounds of interest for the H1 histamine receptor was tested. […] The H1 determinations used ^3H-pyrilamine as the radioligand with chlorpheniramine as the reference compound.

5-HT2 receptor = 5-HT2 receptor (Homo sapiens, UniProt P28223); experiment: Affinity for 5-HT2 receptors; format: binding
5-HT2c receptor = biological target: T1, 5-HT2c receptor (Homo sapiens, UniProt P28335); experiment: Affinity for 5-HT2c receptor; format: binding
T1 sequence (P28335 33-458): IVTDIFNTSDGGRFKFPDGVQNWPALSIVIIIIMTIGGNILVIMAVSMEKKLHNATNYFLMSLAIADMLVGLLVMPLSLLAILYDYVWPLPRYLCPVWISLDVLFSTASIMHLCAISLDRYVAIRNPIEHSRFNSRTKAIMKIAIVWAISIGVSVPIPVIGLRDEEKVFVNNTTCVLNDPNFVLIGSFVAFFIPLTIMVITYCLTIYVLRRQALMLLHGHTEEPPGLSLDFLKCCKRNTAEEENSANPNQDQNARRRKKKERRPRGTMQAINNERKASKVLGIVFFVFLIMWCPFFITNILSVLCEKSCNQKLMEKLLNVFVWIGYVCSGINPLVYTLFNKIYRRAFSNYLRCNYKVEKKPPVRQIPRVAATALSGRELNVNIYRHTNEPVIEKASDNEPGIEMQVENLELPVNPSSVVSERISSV

dopamine D2 receptor = dopamine D2 receptor (Homo sapiens, UniProt P14416); experiment: Affinity for dopamine D2 receptor; format: binding
serotonin transporter = serotonin transporter (Homo sapiens, UniProt P31645); experiment: Affinity for serotonin transporter; format: binding
[1] = biological target: norepinephrine transporter (Homo sapiens, UniProt P23975); experiment: Affinity for norepinephrine transporter; format: binding
[2] = biological target: 5-HT2A serotonin receptor (Homo sapiens, UniProt P28223); experiment: 5-HT2A serotonin receptor radioligand binding assay (3H-ketanserin)
Method: Binding assays were conducted in which the affinity of each of the compounds of interest for the 5-HT2A serotonin receptor was tested. Assays were conducted with the 5-HT2A receptor in buffer consisting of 50 mM Tris-Cl, 0.5 mM EDTA, 5 mM MgCl2, pH=7.4.

[3] = 3H-pyrilamine radioligand, chlorpheniramine reference, read-out: H1 Ki
[4] = in words, read-out: affinity class for histamine H1 receptor

Chain of H1 histamine receptor (P35367 whole entry): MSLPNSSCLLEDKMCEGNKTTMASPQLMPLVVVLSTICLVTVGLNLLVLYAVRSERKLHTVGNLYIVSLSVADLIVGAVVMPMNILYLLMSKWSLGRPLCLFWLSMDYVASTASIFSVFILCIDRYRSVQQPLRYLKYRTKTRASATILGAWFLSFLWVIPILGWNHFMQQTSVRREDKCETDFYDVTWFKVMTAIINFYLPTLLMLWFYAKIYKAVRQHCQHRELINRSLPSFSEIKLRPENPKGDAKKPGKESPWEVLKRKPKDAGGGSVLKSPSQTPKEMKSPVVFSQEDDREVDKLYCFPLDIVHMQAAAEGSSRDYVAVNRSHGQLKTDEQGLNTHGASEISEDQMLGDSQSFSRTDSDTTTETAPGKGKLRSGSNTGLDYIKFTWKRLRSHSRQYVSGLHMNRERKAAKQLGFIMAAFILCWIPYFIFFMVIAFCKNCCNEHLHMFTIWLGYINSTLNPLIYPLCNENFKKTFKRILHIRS
Chain of 5-HT2A serotonin receptor (P28223 whole entry): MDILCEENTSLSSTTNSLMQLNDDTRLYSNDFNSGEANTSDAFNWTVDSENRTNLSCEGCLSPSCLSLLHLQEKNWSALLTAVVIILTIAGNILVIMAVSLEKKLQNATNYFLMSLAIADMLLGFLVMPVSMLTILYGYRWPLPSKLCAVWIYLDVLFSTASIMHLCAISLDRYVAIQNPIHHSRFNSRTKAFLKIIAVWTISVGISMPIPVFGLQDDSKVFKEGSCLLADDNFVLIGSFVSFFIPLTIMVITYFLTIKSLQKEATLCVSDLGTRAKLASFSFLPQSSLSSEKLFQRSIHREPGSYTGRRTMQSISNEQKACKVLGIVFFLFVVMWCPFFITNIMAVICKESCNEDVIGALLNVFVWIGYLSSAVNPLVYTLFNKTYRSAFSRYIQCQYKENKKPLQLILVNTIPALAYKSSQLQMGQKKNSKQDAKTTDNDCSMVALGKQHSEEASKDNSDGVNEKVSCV
Chain of 5-HT2 receptor (P28223 whole entry): as above
Chain of norepinephrine transporter (P23975 whole entry, species assumed): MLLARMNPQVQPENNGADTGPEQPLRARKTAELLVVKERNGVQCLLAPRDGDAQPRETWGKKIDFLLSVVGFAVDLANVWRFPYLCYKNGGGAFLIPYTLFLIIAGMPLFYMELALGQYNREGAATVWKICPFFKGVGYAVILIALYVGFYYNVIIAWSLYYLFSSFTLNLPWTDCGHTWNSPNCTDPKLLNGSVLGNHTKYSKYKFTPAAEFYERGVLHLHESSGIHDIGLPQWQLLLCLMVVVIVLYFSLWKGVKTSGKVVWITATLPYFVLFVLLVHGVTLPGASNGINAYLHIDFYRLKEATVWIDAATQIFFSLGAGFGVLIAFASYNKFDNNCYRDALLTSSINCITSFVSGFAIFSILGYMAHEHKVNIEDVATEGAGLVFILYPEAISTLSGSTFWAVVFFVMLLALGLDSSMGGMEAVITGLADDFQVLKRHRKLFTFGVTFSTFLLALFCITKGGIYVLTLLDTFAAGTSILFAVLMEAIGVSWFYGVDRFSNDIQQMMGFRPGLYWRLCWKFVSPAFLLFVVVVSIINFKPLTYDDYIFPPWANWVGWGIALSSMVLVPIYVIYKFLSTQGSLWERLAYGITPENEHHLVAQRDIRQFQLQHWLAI
Chain of dopamine D2 receptor (P14416 whole entry, species assumed): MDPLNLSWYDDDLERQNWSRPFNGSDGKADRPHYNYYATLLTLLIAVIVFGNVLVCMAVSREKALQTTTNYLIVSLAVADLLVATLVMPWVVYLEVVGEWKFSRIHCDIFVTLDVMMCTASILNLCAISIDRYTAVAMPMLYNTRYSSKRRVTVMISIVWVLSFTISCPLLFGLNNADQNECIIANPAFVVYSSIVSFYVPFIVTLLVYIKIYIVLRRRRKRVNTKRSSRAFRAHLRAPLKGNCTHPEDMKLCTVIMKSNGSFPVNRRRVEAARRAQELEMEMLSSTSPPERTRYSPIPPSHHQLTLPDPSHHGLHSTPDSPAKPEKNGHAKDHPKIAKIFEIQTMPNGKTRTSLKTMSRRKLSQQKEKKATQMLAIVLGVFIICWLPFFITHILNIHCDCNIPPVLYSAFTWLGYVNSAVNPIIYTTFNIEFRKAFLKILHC
Chain of serotonin transporter (P31645 whole entry): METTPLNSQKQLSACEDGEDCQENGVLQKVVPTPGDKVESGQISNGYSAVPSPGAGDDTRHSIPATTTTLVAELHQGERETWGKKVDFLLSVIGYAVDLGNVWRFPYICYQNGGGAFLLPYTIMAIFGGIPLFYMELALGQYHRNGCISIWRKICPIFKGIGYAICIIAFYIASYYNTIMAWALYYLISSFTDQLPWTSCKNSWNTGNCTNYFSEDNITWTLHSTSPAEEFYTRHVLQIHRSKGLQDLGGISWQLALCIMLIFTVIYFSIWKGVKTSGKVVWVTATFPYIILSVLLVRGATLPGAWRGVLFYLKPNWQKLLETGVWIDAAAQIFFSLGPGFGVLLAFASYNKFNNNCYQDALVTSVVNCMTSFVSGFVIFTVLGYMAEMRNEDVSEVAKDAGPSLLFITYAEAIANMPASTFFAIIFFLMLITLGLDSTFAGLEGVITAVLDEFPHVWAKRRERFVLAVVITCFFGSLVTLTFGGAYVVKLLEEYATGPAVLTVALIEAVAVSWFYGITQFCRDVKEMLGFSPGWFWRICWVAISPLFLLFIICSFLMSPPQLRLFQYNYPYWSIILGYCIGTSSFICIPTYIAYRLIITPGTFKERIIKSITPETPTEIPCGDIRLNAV

Row | Ki [2] [nM] | Compound | Ki (H1 histamine receptor; [3]) [nM] | Ki (H1 histamine receptor; [4]) [nM] | also measured
1 | 46 | CN1CCC2(C1)c1ccccc1Cc1ccccc12 [Compound 6, Spiro[9,10-dihydroanthracene]-9,3′-(1-methyl)-pyrrolidine] | – | – | –
2 | 220 | c1ccc(CN2CCC3(C2)c2ccccc2Cc2ccccc23)cc1 [Compound 7, Spiro[9,10-dihydroanthracene]-9,3′-(1-benzyl)-pyrrolidine] | – | – | –
3 | 68 | CC1(C)c2ccccc2C2(CCNC2)c2ccccc21 [Compound 12, Spiro[-(10,10-dimethyl)-9,10-dihydroanthracene]-9,3′-pyrrolidine] | – | – | –
4 | 330 | Oc1ccc2c(c1)Cc1ccccc1C21CCN(Cc2ccccc2)C1 (stereo not drawn) [Compound 18, 3-Hydroxy-9,9-[spiro-3′-(n-benzyl)-pyrrolidinyl]-9,10-dihydroanthracene] | – | – | –
5 | 9.2 | Oc1ccc2c(c1)Cc1ccccc1C21CCNC1 (stereo not drawn) [Compound 19, Spiro[-(3-hydroxy)-9,10-dihydroanthracene]-9,3′-pyrrolidine] | – | – | –
6 | 2030 | CCCCCCc1ccc2c(c1)Cc1ccccc1C21CCN(Cc2ccccc2)C1 (stereo not drawn) [Compound 20, 3-n-Hexyl-9,9-[spiro-3′-(n-benzyl)-pyrrolidinyl]-9,10-dihydroanthracene] | – | – | –
7 | 998 | c1ccc(CCCc2ccc3c(c2)Cc2ccccc2C32CCN(Cc3ccccc3)C2)cc1 (stereo not drawn) [Compound 22, 3-(3-Phenylpropyl)-9,9-[spiro-3′-(n-benzyl)-pyrrolidinyl]-9,10-dihydroanthracene] | – | – | –
8 | 3.5 | c1ccc(CCCc2ccc3c(c2)Cc2ccccc2C32CCNC2)cc1 (stereo not drawn) [Compound 23, 3-(3-Phenylpropyl)-9,9-[spiro-3′-pyrrolidinyl]-9,10-dihydroanthracene] | – | – | –
9 | 18 | c1ccc(-c2ccc3c(c2)Cc2ccccc2C32CCNC2)cc1 (stereo not drawn) [Compound 25, 3-(3-Phenyl)-9,9-[spiro-3′-pyrrolidinyl]-9,10-dihydroanthracene] | – | – | –

Row | Compound | Ki [2] [nM] | Ki (H1 histamine receptor; [3]) [nM] | Ki (H1 histamine receptor; [4]) [nM] | also measured
10 | c1ccc2c(c1)Cc1ccccc1C21CCNC1 [Compound 5, Spiro[9,10-dihydroanthracene]-9,3′-pyrrolidine] | 3.8 | 8.5 | ≤ 100 | Ki (5-HT2 receptor): 1 to 500 nM; Ki (5-HT2 receptor; read-out: Ki for 5-HT2 receptors): 4 nM; Ki (5-HT2c receptor): 1 to 500 nM; Ki (5-HT2c receptor; read-out: Ki for 5-HT2c receptor): 24 nM; Ki (dopamine D2 receptor): 5040 nM; Ki (serotonin transporter): > 10000 nM; Ki [1]: > 10000 nM
11 | COc1ccc2c(c1)Cc1ccccc1C21CCN(Cc2ccccc2)C1 (stereo not drawn) [Compound 16, 3-Methoxy-9,9-[spiro-3′-(n-benzyl)-pyrrolidinyl]-9,10-dihydroanthracene] | 1000 | 74 | ≤ 100 | –
12 | COc1ccc2c(c1)Cc1ccccc1C21CCNC1 (stereo not drawn) [Compound 17, 3-Methoxy-9,9-[spiro-3′-pyrrolidinyl]-9,10-dihydro-anthracene] | 3.7 | 40 | ≤ 100 | –
13 | CCCCCCc1ccc2c(c1)Cc1ccccc1C21CCNC1 (stereo not drawn) [Compound 21, 3-n-Hexyl-9,9-[spiro-3′-pyrrolidinyl]-9,10-dihydroanthracene] | 6 | 1600 | – | –
14 | c1ccc2c(c1)Oc1ccccc1C21CCNC1 [Compound 30, Spiro[xanthenyl]-9,3′-pyrrolidine] | 40 | 51 | ≤ 100 | –
15 | c1ccc2c(c1)Sc1ccccc1C21CCNC1 [Compound 36, Spiro[thioxanthenyl]-9,3′-pyrrolidine] | 5 | 6 | ≤ 100 | –
